Measurements as given in ChEMBL document CHEMBL2434945, “Anti-inflammatory constituents from the fruits of Vitex rotundifolia” (Bioorg Med Chem Lett, 2013).

Legend:
[1] = Cytotoxicity against mouse RAW264.7 cells assessed as cell viability by colorimetric method relative to control; type: cell-based; design: concentration or dose not given beside the values; conditions: read-out: Activity
[2] = system: RAW264.7; assay: Antiinflammatory activity against mouse RAW264.7 cells assessed as inhibition of LPS-induced NO production after 24 hrs by Griess method; type: functional, cell-based; conditions: RAW264.7, 24 h

Structure (SMILES) | viability [1] [%] | IC50 [2] [µM]
C[C@@H]1CC[C@H]2C(C)(C)CCC[C@]2(C)[C@@]12CC/C(=C\C=O)O2 | > 90 | 41.8
CC(C)(O)c1ccc2c(c1)CC[C@H]1C(C)(C)[C@@H](O)CC[C@]21C | > 90 | > 50
COc1ccc(-c2oc3cc(OC)c(OC)c(O)c3c(=O)c2OC)cc1O [CASTICIN] | > 90 | 21.4
COc1cc([C@H]2Oc3c(OC)cc(CCCO)cc3[C@@H]2CO)ccc1O [DIHYDRODEHYDRODICONIFERY ALCOHOL] | > 90 | 38.7
COc1cc(C[C@H]2CO[C@H](c3ccc(O)c(OC)c3)[C@H]2CO)ccc1O [LARICIRESINOL] | > 90 | > 50
N=C(N)NN [PIMAGEDINE] | > 90 | 
CC(=O)O[C@@H]1C[C@@H](C)[C@](O)(CCC2=CC(=O)OC2O)[C@@]2(C)CCCC(C)(C)[C@H]12 (some centres undefined) [VITEAGNUSIN I] | > 90 | 11.3
CC(=O)O[C@H]1CC[C@@]2(C)[C@@H](CC[C@@H](C)[C@]23CCC(=O)O3)C1(C)C [VITEDOIN B] | > 90 | > 50
C=CC(C)(O)CC[C@@]1(C)C2=C([C@H](OC(C)=O)[C@H](OC(C)=O)[C@H]1C)C(C)(C)CCC2 (some centres undefined) [VITETRIFOLIN D] | > 90 | 24.5
CC(=O)O[C@@H]1C[C@@H](C)[C@](O)(CCC2=CC(=O)OC2)[C@@]2(C)CCCC(C)(C)[C@H]12 [VITEXILACTONE] | > 90 | 42.5
